Assay: xn = mol fraction of the nth substance listed
Conditions: 92.3 kPa, Liquid; for viscosity: Concentric cylinders viscometry; for speed of sound: Frequency=3 MHz, Single path-length method; for mass density: Vibrating tube method

OCCO [1,2-ethanediol] + O
Conditions	mass density, 293.15 K [kg/m3]	mass density, 298.15 K [kg/m3]	speed of sound, 293.15 K [m/s]	speed of sound, 298.15 K [m/s]	viscosity, 293.15 K [mPa·s]	viscosity, 298.15 K [mPa·s]
x1 = 0.0101	1002.83	1001.54	1498.9	1511.9	–	–
x1 = 0.0201	1006.96	1005.57	1514.6	1526.3	–	–
x1 = 0.0302	1011.02	1009.56	1529.7	1540.2	–	–
x1 = 0.0407	1015.07	1013.5	1544.6	1553.8	–	–
x1 = 0.0494	1018.4	1016.76	–	–	1.541	1.253
x1 = 0.0506	1018.75	1017.08	1558.1	1566.2	–	–
x1 = 0.0605	1022.31	1020.55	1570.8	1577.9	–	–
x1 = 0.0704	1025.78	1023.96	1583.2	1589.2	–	–
x1 = 0.0801	1029.04	1027.15	1594	1599	–	–
x1 = 0.0905	1032.34	1030.37	1605.6	1609.6	–	–
x1 = 0.0986	1034.8	1032.78	–	–	2.078	1.68
x1 = 0.0997	1035.3	1033.24	1614.8	1618	–	–
x1 = 0.1483	1048.46	1046.12	–	–	2.699	2.167
x1 = 0.1493	1048.74	1046.4	1656.2	1655.5	–	–
x1 = 0.1985	1059.45	1056.96	1684.5	1681	–	–
x1 = 0.2072	1061.51	1058.86	–	–	3.517	2.811
x1 = 0.2466	1068.68	1065.86	–	–	4.104	3.276
x1 = 0.2487	1069.2	1066.32	1702.1	1696.5	–	–
x1 = 0.298	1076.5	1073.51	–	–	4.94	3.936
x1 = 0.2998	1076.8	1073.79	1712.9	1705.8	–	–
x1 = 0.3318	1080.9	1077.77	1716.6	1708.7	–	–
x1 = 0.3399	1081.8	1078.69	–	–	5.663	4.507
x1 = 0.3921	1087.31	1084.09	–	–	6.621	5.261
x1 = 0.3981	1087.84	1084.61	1719.4	1710.4	–	–
x1 = 0.4446	1091.88	–	–	–	7.638	6.062
x1 = 0.4521	1092.39	–	1718.6	1708.8	–	–
x1 = 0.4934	1095.4	1092.05	1716.1	1705.9	–	–
x1 = 0.5007	–	1092.56	–	–	8.782	6.959
x1 = 0.5485	1098.81	1095.42	–	–	9.81	7.764
x1 = 0.552	1099	–	1711.5	1700.9	–	–
x1 = 0.5846	1100.79	1097.38	1708.3	1697.6	–	–
x1 = 0.6004	1101.51	1098.09	–	–	10.95	8.662
x1 = 0.6451	1103.53	1100.1	–	–	11.97	9.461
x1 = 0.6481	1103.65	1100.22	1702.1	1691	–	–
x1 = 0.6773	1104.88	1101.43	1699	1687.8	–	–
x1 = 0.7012	1105.75	1102.3	–	–	13.33	10.55
x1 = 0.7421	1107.16	1103.69	1692.2	1680.8	–	–
x1 = 0.7435	1107.22	1103.76	–	–	14.35	11.32
x1 = 0.7811	1108.41	1104.94	1688	1676.5	–	–
x1 = 0.7907	1108.69	1105.22	–	–	15.51	12.24
x1 = 0.8497	–	1106.83	1681	1669.3	–	–
x1 = 0.8505	–	1106.84	–	–	16.94	13.35
x1 = 0.89	1111.29	1107.8	–	–	17.91	14.12
x1 = 0.9002	1111.55	1108.06	1676	1664.3	–	–
x1 = 0.9059	1111.66	1108.17	1675.5	1663.8	–	–
x1 = 0.912	1111.78	1108.29	1675	1663.3	–	–
x1 = 0.9299	1112.18	1108.69	1673.3	1661.5	–	–
x1 = 0.9413	1112.43	1108.94	1672.2	1660.4	–	–
x1 = 0.9495	1112.62	1109.13	1671.4	1659.6	–	–
x1 = 0.9532	1112.69	1109.19	–	–	19.48	15.35
x1 = 0.9546	1112.73	1109.23	1671	1659.2	–	–
x1 = 0.9681	1112.99	1109.49	1669.9	1658.1	–	–
x1 = 0.9789	1113.19	–	1669	1657.2	–	–
x1 = 0.9893	1113.4	–	1667.9	1656.1	–	–
x1 = 1	1113.72	–	1666.5	1654.7	20.61	16.22

— the NIST ThermoML archive (doi:10.1016/j.jct.2018.02.022)
